# Assay results from patent US20240150287A1, “N-(BENZOYL)-PHENYLALANINE COMPOUND, PHARMACEUTICAL COMPOSITION CONTAINING SAME, AND USE THEREOF” (Hangzhou Apeloa Medicine Research Institute Co., Ltd., priority 2021, published 2024).
# Molecular target: recombinant human integrin α4β7 (binding to recombinant human MAdCAM-1) (Homo sapiens (Human), UniProt P13612+P26010)
# Test: MAdCAM-1/α4β7 integrin binding inhibition activity evaluation test (α4β7-MAdCAM-1 ELISA)
# Conditions: plate-coated recombinant human MAdCAM-1, recombinant human α4β7, 2 h room temperature, free form of compound
# Procedure: EXAMPLE: MADCAM-1/α4β7 INTEGRIN BINDING INHIBITION ACTIVITY EVALUATION TEST (α4β7-MADCAM-1 ELISA)
# Coat the 96-well microplate (Costar) with 50 μL of recombinant human MAdCAM-1 (R&D Systems) solution per well, and incubate overnight (12-18 hours) at 4° C. Wash three times with 150 μL of TBS buffer per well. Block plate with 150 μL per well with blocking buffer for 1 h at 37° C. Wash three times with 150 μL of TBS buffer per well. Dilute the recombinant human integrin α4β7 (R&D Systems) with TBS buffer containing 0.1% bovine serum albumin (BSA), then add to the 96 well plate with 50 μL per well. Add 1 μL of test compound or DMSO, cover, incubate at room temperature for 2 h, wash three times with 150 μL of TBS buffer per well. Dilute the anti-β7 antibody (R&D Systems) with 0.1% BSA TBS buffer, then add to the 96 well plate with 50 μL per well, cover, incubate at room temperature for 1 h, wash three times with 150 μL of TBS buffer per well. Add 50 μL of streptavidin-HRP (R&D Systems) per well, incubate at room temperature for 20 min, wash three times with 150 μL of TBS buffer per well. Add 50 μL of TMB substrate solution (Sigma) per well, incubate at room temperature for 5-30 min, and add 25 μL of stop solution per well to stop the reaction. Finally, measure absorbance at 450 nm with microplate reader (SpectraMax 340PC. Molecular Devices). Repeat the test to find the binding rate of cells at each concentration when the absorbance of the well without the test substance is used as 100%, and calculate the concentration IC50 that causes 50% binding inhibition and summarize the results in Table 1.
# It should be stated that, as a test compound, the free form of the compound synthesized in the above examples is used.
# recombinant human integrin α4β7 (binding to recombinant human MAdCAM-1), sequence (P13612 34-970): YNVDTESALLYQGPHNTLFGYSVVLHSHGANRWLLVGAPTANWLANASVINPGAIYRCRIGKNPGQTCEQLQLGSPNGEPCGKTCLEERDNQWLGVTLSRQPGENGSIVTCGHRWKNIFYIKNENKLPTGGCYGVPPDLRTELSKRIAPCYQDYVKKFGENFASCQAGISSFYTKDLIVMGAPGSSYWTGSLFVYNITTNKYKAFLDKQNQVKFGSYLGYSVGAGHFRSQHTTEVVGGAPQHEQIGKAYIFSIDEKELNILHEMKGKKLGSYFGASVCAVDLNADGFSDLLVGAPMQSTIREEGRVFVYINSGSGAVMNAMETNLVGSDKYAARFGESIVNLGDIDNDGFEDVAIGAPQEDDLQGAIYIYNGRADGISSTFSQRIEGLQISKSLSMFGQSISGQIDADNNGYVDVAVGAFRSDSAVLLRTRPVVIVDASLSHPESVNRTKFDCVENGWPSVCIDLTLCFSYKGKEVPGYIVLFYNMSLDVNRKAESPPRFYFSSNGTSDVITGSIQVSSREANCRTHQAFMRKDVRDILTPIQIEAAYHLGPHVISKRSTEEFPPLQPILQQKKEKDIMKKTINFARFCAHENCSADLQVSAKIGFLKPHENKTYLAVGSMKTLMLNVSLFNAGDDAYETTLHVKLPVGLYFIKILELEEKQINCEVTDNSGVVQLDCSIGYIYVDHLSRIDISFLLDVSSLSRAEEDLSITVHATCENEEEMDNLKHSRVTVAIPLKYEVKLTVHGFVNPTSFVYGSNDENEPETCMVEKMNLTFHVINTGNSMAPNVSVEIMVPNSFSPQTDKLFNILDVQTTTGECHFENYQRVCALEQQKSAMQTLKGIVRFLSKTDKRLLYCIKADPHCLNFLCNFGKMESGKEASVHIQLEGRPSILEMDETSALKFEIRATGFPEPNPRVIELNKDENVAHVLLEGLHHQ
# recombinant human integrin α4β7 (binding to recombinant human MAdCAM-1), sequence (P26010 20-723): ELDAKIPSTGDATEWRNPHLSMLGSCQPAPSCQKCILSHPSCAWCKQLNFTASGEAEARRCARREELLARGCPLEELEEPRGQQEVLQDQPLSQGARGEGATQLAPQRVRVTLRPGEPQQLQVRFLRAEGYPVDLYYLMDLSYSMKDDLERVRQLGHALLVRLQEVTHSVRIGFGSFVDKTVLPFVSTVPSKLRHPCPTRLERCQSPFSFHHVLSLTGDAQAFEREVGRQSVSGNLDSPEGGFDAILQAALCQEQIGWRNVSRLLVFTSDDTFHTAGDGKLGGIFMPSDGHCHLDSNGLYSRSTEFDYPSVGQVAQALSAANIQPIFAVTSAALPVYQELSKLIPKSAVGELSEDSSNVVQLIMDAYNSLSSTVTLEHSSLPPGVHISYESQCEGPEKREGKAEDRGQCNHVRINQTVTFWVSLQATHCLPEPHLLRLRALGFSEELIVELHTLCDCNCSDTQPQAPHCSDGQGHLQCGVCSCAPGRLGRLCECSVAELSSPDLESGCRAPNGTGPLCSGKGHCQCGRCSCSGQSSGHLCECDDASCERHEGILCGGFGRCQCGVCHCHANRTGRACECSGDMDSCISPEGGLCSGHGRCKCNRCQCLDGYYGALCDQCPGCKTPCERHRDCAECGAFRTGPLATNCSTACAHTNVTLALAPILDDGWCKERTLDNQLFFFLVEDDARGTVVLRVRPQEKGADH
row,Structure (SMILES),IC50 [nM]
1,"O=C(N[C@@H](Cc1ccc(N2C(=O)C3(CC3)c3cc(F)c(F)cc32)cc1)C(=O)O)c1c(F)cccc1Cl [Example 1, (S)-2-(2-chloro-6-fluorobenzamide)-3-(4-(5′,6′-difluoro-2′-oxospirino[cyclopropane-1,3′-indoline]-1′-yl)phenyl)propionic acid]",14.3
2,"O=C(N[C@@H](Cc1ccc(N2C(=O)C3(CC3)c3cccc(Cl)c32)cc1)C(=O)O)c1c(F)cccc1Cl [Example 2, (S)-3-(4-(7′-chloro-2′-oxospiro[cyclopropane-1,3′-indoline]-1′-yl)phenyl)-2-(2-chloro-6-fluorobenzamide) propionic acid]",2.57
3,"COc1cccc2c1N(c1ccc(C[C@H](NC(=O)c3c(Cl)cccc3Cl)C(=O)O)cc1)C(=O)C21CC1 [Example 3, (S)-2-(2,6-dichlorobenzamido)-3-(4-(7′-methoxy-2′-oxospiro[cyclopropane-1,3′-indoline]-1′-yl)phenyl)propionic acid]",5.48
4,"O=C(N[C@@H](Cc1ccc(N2C(=O)C3(CC3)c3ccc(F)cc32)cc1)C(=O)O)c1c(Cl)cccc1Cl [Example 4, (S)-2-(2,6-dichlorobenzamido)-3-(4-(6′-fluoro-2′-oxospiro[cyclopropane-1,3′-indoline]-1′-yl)phenyl)propionic acid]",2.54
5,"O=C(N[C@@H](Cc1ccc(N2C(=O)C3(CC3)c3cccc(F)c32)cc1)C(=O)O)c1c(Cl)cccc1Cl [Example 5, (S)-2-(2,6-dichlorobenzoylamino)-3-(4-(7′-fluoro-2′-oxospiro[cyclopropane-1,3′-indoline]-1′-yl)phenyl)propionic acid]",2.87
6,"O=C(N[C@@H](Cc1ccc(N2C(=O)C3(CC3)c3ccccc32)cc1)C(=O)O)c1c(Cl)cccc1Cl [Example 6, (S)-2-(2,6-dichlorobenzamido)-3-(4-(2′-oxospiro[cyclopropane-1,3′-indoline]-1′-yl)phenyl)propionic acid]",5.81
7,"O=C(N[C@@H](Cc1ccc(N2C(=O)C3(CCOCC3)c3cccc(Cl)c32)cc1)C(=O)O)c1c(F)cccc1Cl [Example 7, (S)-3-(4-(7-chloro-2-oxo-2′,3′,5′,6′-tetrahydrospiro[indoline-3,4′-pyran]-1-yl)phenyl)-2-(2-chloro-6-fluorobenzamide)propionic acid]",16.1
8,"O=C(N[C@@H](Cc1ccc(N2C(=O)C3(CC3)c3cc(F)c(Cl)cc32)cc1)C(=O)O)c1c(F)cccc1Cl [Example 8, (S)-3-(4-(6′-chloro-5′-fluoro-2′-oxospiro[cyclopropane-1,3′-indoline]-1′-yl)phenyl)-2-(2-chloro-6-fluorobenzamide)propionic acid]",17.6
9,"O=C(N[C@@H](Cc1ccc(N2C(=O)C3(CC3)c3cc(F)ccc32)cc1)C(=O)O)c1c(F)cccc1Cl [Example 9, (S)-2-(2-chloro-6-fluorobenzamide)-3-(4-(5′-fluoro-2′-oxospiro[cyclopropane-1,3′-indoline]-1′-yl)phenyl)propionic acid]",95.5
10,"CC1(C)C(=O)N(c2ccc(C[C@H](NC(=O)c3c(F)cccc3Cl)C(=O)O)cc2)c2c(Cl)cccc21 [Example 10, (S)-3-(4-(7-chloro-3,3-dimethyl-2-oxoindoline-1-yl)phenyl)-2-(2-chloro-6-fluorobenzamide)propionic acid]",38.8
11,"CN(C)c1cc2c(cc1F)C1(CC1)C(=O)N2c1ccc(C[C@H](NC(=O)c2c(F)cccc2Cl)C(=O)O)cc1 [Example 11, (S)-2-(2-chloro-6-fluorobenzamide)-3-(4-(6′-(dimethylamino)-5′-fluoro-2′-oxospiro[cyclopropane-1,3′-indoline]-1′-yl)phenyl)propionic acid]",3.05
12,"CN(C)c1ccc2c(c1)C1(CC1)C(=O)N2c1ccc(C[C@H](NC(=O)c2c(F)cccc2Cl)C(=O)O)cc1 [Example 12, (S)-2-(2-chloro-6-fluorobenzamide)-3-(4-(5′-(dimethylamino)-2′-oxospiro[cyclopropane-1,3′-indoline]-1′-yl)phenyl)propionic acid]",4.15
13,O=C(N[C@@H](Cc1ccc(N2C(=O)C3(CC3)c3ccc(F)cc32)cc1)C(=O)O)c1c(F)cccc1Cl [Example 13],8.02
14,"O=C(N[C@@H](Cc1ccc(N2C(=O)C3(CC3)c3cccc(F)c32)cc1)C(=O)O)c1c(F)cccc1Cl [Example 14, (S)-2-(2-chloro-6-fluorobenzamide)-3-(4-(7-fluoro-2′-oxospiro[cyclopropane-1,3′-indoline]-1′-yl)phenyl)propionic acid]",6.21
15,"O=C(N[C@@H](Cc1ccc(N2C(=O)C3(CC3)c3ccc(F)c(F)c32)cc1)C(=O)O)c1c(F)cccc1Cl [Example 15, (S)-2-(2-chloro-6-fluorobenzamide)-3-(4-(6′,7′-difluoro-2′-oxospirino[cyclopropane-1,3′-indoline]-1′-yl)phenyl)propionic acid]",5.62
16,"O=C(N[C@@H](Cc1ccc(N2C(=O)C3(CC3)c3cccnc32)cc1)C(=O)O)c1c(Cl)cccc1Cl [Example 16, (S)-2-(2,6-dichlorobenzamido)-3-(4-(2′-oxospiro[cyclopropane-1,3′-pyrrolo[2,3-b]pyridine]-1′(2′H)-yl)phenyl)propionic acid]",0.75
17,"O=C(N[C@@H](Cc1ccc(N2C(=O)C3(CC3)c3cccc(Cl)c32)cc1)C(=O)O)c1c(Cl)cc(Cl)cc1Cl [Example 17, (S)-3-(4-(7′-chloro-2′-oxospiro[cyclopropane-1,3′-indoline]-1′-yl)phenyl)-2-(2,4,6-trichlorobenzoylamino)propionic acid]",64.2
18,"O=C(N[C@@H](Cc1ccc(N2C(=O)C3(CC3)c3cccc(Cl)c32)cc1)C(=O)O)c1c(Cl)cc(N2CCOCC2)cc1Cl [Example 19, (S)-3-(4-(7′-chloro-2′-oxospiro[cyclopropane-1,3′-indoline]-1′-yl)phenyl)-2-(2,6-dichloro-4-morpholinobenzoylamino)propionic acid]",11.4
19,O=C(N[C@@H](Cc1ccc(N2C(=O)C3(CC3)c3cccc(Cl)c32)cc1)C(=O)O)c1c(Cl)cc(N2CC3CC2CO3)cc1Cl (stereo partly drawn) [Example 20],4.15
20,"O=C(N[C@@H](Cc1ccc(N2C(=O)C3(CC3)c3cccc(Cl)c32)cc1)C(=O)O)c1c(Cl)cc(N2CCC(N3CCOCC3)CC2)cc1Cl [Example 21, (S)-3-(4-(7′-chloro-2′-oxospiro[cyclopropane-1,3′-indoline]-1′-yl)phenyl)-2-(2,6-dichloro-4-(4-morpholinopiperidin-1-yl)benzoylamino)propionic acid]",23.7
21,"Cn1c(=O)n(-c2ccc(C[C@H](NC(=O)c3c(F)cccc3Cl)C(=O)O)cc2)c2c(Cl)cccc21 [Example 22, (S)-3-(4-(7-chloro-3-methyl-2-oxo-2,3-dihydro-1H-benzo-1H-imidazol-1-yl)phenyl)-2-(2-chloro-6-fluorobenzamide)propionic acid]",1.19
22,"O=C(N[C@@H](Cc1ccc(-n2c(=O)n(C3CC3)c3cc(Cl)ccc32)cc1)C(=O)O)c1c(Cl)cccc1Cl [Example 23, (S)-3-(4-(5-chloro-3-cyclopropyl-2-oxo-2,3-dihydro-1H-benzo[d]imidazol-1-yl)phenyl)-2-(2,6-dichlorobenzamido)propionic acid]",143
23,"O=C(N[C@@H](Cc1ccc(-n2c(=O)n(C3CC3)c3ccc(Cl)cc32)cc1)C(=O)O)c1c(Cl)cccc1Cl [Example 24, (S)-3-(4-(6-chloro-3-cyclopropyl-2-oxo-2,3-dihydro-1H-benzo[d]imidazol-1-yl)phenyl)-2-(2,6-dichlorobenzamido)propionic acid]",5.67
24,"O=C(N[C@@H](Cc1ccc(-n2c(=O)n(C3CC3)c3cccc(Cl)c32)cc1)C(=O)O)c1c(Cl)cccc1Cl [Example 25, (S)-3-(4-(7-chloro-3-cyclopropyl-2-oxo-2,3-dihydro-1H-benzo[d]imidazol-1-yl)phenyl)-2-(2,6-dichlorobenzamido)propionic acid]",7.5
25,"Cn1c(=S)n(-c2ccc(C[C@H](NC(=O)c3c(F)cccc3Cl)C(=O)O)cc2)c2c(Cl)cccc21 [Example 26, (S)-3-(4-(7-chloro-3-methyl-2-thio-2,3-dihydro-1H-benzo[d]imidazol-1-yl)phenyl)-2-(2-chloro-6-fluorobenzoylamino)propionic acid]",160
26,"O=C(N[C@@H](Cc1ccc(-n2c(=O)n(C3CC3)c3cccc(F)c32)cc1)C(=O)O)c1c(F)cccc1Cl [Example 27, (S)-2-(2-chloro-6-fluorobenzoylamino)-3-(4-(3-cyclopropyl-7-fluoro-2-oxo-2,3-dihydro-1H-benzo [d]imidazol-1-yl)phenyl)propionic acid]",8.81
27,"O=C(N[C@@H](Cc1ccc(-n2c(=O)n(C3CCOCC3)c3cccc(Cl)c32)cc1)C(=O)O)c1c(F)cccc1Cl [Example 28, (S)-3-(4-(7-chloro-2-oxo-3-(tetrahydro-2H-pyran-4-yl)-2,3-dihydro-1H-benzo[d]imidazol-1-yl)phenyl)-2-(2-chloro-6-fluorobenzoylamino)propionic acid]",10.9
